# Test results from patent US20220378854A1, “COMPOSITION FOR PREVENTING, TREATING, OR IMPROVING GASTROINTESTINAL DISEASES COMPRISING STRAIN OF GENUS CORYNEBACTERIUM AND CULTURE THEREOF” (CJ CheilJedang Corporation, priority 2019, published 2022).
# Tests used:
# WIRS rats [1] = assay: SRMD improving efficacy in WIRS rats (gross lesion index, pathologic scores); type: in vivo, rat; conditions: oral 8 hours before WIRS; L-Thr 0.15% by weight/diet; WIRS 6 hours
# Procedure: (§1) 110 SD rats in total were purchased from Charles River (Osaka, Japan) and stored in an animal facility. The experimental animals were handled in the authorized animal facility according to AAALAC International Animal Care Policies. The animals were fasted 24 hours prior to be exposed to WIRS, and water was freely available. 10 rats of each group were placed in a cage for WIRS and immersed in water for 6 hours.
# (§2) They were divided into a untreated group in which nothing was treated after oral administration of saline solution ([…], animal experimental group 1), WIRS Group in which WIRS was applied for 6 hours ([…], animal experimental group 2), and animal experimental groups in which feed containing Sample 1 (prepared in Example 8) of 0.15% by weight (animal experimental group 3) and feed containing Sample 3 (prepared in Example 8) of 0.21% by weight (animal experimental group 4) were orally treated by 30 mg/kg body, respectively, 8 hours before WIRS treatment. The content of L-Thr (L-threonine) in the feed of the animal experimental groups 3 and 4 was set to 0.15% by weight/diet equally.
# All experimental animals (rat) were sacrificed with a high dose of anesthetic (thiopental sodium, 50 mg/kg) after 6 hours of WIRS. The animal experimental groups 1-4 disclosed in the following Examples 10 to 12 mean the animal experimental groups 1-4 of the Table 5, and in FIG. 7a to FIG. 10, Groups 1-4 mean the animal experimental groups 1-4 of Table 5.
# The stomach of the rat sacrificed in Example 9 was incised and opened along the larger curvature, and then washed with cold PBS solution. After determining the number and size of erosions or ulcers by enlarged photographs, the half was anatomized for anatomical observation. The incised stomach was spread over plastic sheet and fixed in 10% buffer formalin for 4 hours and used for production of a paraffin tissue slide, and the other half was stored in a liquid nitrogen tank for molecular biological observation. In addition, the mucosal homogenate was stored by mixing the same animal experimental groups.
# The stomach sample was observed using […] naked eyes (FIG. 7a), and in the control group and each experimental group (animal experimental groups 1-4), gross lesion index, inflammation; pathologic score, ulcer/erosion; pathologic score, regeneration; pathologic score were calculated and shown in FIG. 7b.
# WIRS rats [2] = assay: p-IκBα, p-ERK, p-JNK protein level in gastric mucosa of WIRS rats (western blot); type: in vivo, rat; conditions: oral 8 hours before WIRS, WIRS 6 hours
# Procedure: as §2
# (§3) In addition, in each of the animal experimental groups 1-4, the protein level of p-IκBα, p-ERK, and p-JNK was measured and shown in FIG. 8c and FIG. 8d. Specifically, to perform western blot for measuring the protein level, the collected gastric mucosa was homogenized in ice-cold 20 mM Tris-HCl buffer (pH 7.5) containing 2 mM EDTA (ethylenediaminetetraacetic acid), 0.5 mM EGTA (ethylene glycol tetraacetic acid), 300 mM sucrose, and 2 mM PMSF (phenylmethylsulfonyl fluoride) with a tissue homogenator. […] The immune complex was detected using ECL detection kit (Amersham Biosciences Korea, Seoul, Korea) and X-ray film was automatically irradiated. […]
# WIRS rats [3] = assay: CDK4 and Cyclin D1 protein in WIRS rats; type: in vivo, rat; conditions: oral 8 hours before WIRS; WIRS 6 hours
# Procedure: as §2, §3
# WIRS rats [4] = assay: mucin content in stomach tissue of WIRS rats by PAS staining; type: in vivo, rat; conditions: oral 8 hours before WIRS, WIRS 6 hours
# Procedure: as §2
# In the stomach tissue of the animal experimental groups 1 to 4, the mucin content was confirmed by PAS staining, and the result was shown in FIG. 10.
# WIRS rats [5] = assay: apoptosis on the gastric mucosa of WIRS rats (TUNEL, apoptotic index); type: in vivo, rat; conditions: oral 8 hours before WIRS; WIRS 6 hours
# Procedure: as §2
# Specifically, apoptosis was visualized using TdT FragEL DNA fragmentation detection kit (Oncogene Research Products, Cambridge, Mass.) and TUNEL (Terminal deoxynucleotidyl transferase-mediated nick end labeling) method. To measure AI (apoptotic index) by finding a region in which apoptosis occurs in a large quantity (apoptotic hot spot) in each experimental group, TUNEL-immunostained section (terminal deoxynucleotidyl transferase mediated dUTP nick-end labeling (TUNEL)-immunostained section) was enlarged 100 folds and scanned. Then, the number of TUNEL-positive cells was counted in 400 fields to record AI. […]
# WIRS rats [6] = assay: mRNA expression of inflammation mediators and PDGF in WIRS rats; type: in vivo, rat; conditions: oral 8 hours before WIRS; L-Thr 0.15% by weight/diet; WIRS 6 hours
# Procedure: as §2
# Since SRMD was physiologically related to ischemic-reperfusion damage, in the animal experimental groups 1 to 4, mRNA expression of angiogenesis growth factors including PDGF (platelet-derived growth factor) and mRNA expression of inflammation mediators, iNOS, TNF-α, IFN-γ, and PDGF were measured, and the result was shown in FIG. 8a and FIG. 8b.
# Specifically, the total RNA was extracted using RNeasy Mini kit (Qiagen Korea, Seoul, Korea). Amplification was analyzed using 10× reaction buffer (Promega Korea, Seoul, Korea), 1.5 mM/L MgCl2, […] deoxynucleotide triphosphate (dNTP), each primer […], and Taq DNA polymerase (Promega) 2.5 unit, using Perkin-Elmer GeneAmp PCR System 2400. Each cycle was composed of denaturation at 95° C. for 1 minute, annealing at 55° C. for […], and amplification at 72° C. for 45 seconds.
# WIRS rats [7] = assay: WIRS rat model, stomach observed by naked eyes (gastrorrhagia); type: in vivo; conditions: oral, 8 hours before WIRS; same threonine 0.15% by weight/diet; WIRS 6 hours
# Procedure: as §1
# Sample 1 to Sample 5 prepared in Example 8 were orally administered to rats 8 hours before WIRS treatment, so that the same amount of threonine was administered (0.15% by weight/diet), and after applying WIRS for 6 hours, the animals were sacrificed and the stomach was extracted and incised and contents were removed, and a picture of the inner surface of the stomach was taken and this was shown in FIG. 11.
# WIRS rats [8] = assay: apoptosis proteins in WIRS rats (western blot); type: in vivo, rat; conditions: oral 8 hours before WIRS; WIRS 6 hours
# Procedure: as §2
# In addition, in each of the animal experimental groups 1-4, the protein level of p-IκBα, p-ERK, and p-JNK was measured and shown in FIG. 8c and FIG. 8d. Specifically, to perform western blot for measuring the protein level, the collected gastric mucosa was homogenized in ice-cold 20 mM Tris-HCl buffer (pH 7.5) containing 2 mM EDTA (ethylenediaminetetraacetic acid), 0.5 mM EGTA (ethylene glycol tetraacetic acid), 300 mM sucrose, and 2 mM PMSF (phenylmethylsulfonyl fluoride) with a tissue homogenator. After electrophoresis of protein of 30 μg in 8% SDS-PAGE (sodium dodecyl sulfate-polyacrylamide gel electrophoresis) gel, it was transferred to PVDF (polyvinylidene fluoride) membrane using a semidry transfer system (Hoefer, Holliston, Mass., USA). Non-specific binding was blocked by incubation with 5% non-fat dry milk. The membrane was thermostatically incubated with a 500-fold diluted solution of a primary antibody at 4° C. overnight, and then incubated with an HRP (horseradish peroxidase) binding-secondary antibody diluted by 1:1000. The immune complex was detected using ECL detection kit (Amersham Biosciences Korea, Seoul, Korea) and X-ray film was automatically irradiated. Antibodies used for western blot were as follows. β-actin, iNOS (nitric oxide synthase), COX-2 (cyclooxygenase), P-JNK (phosphor-JNK), P-ERK (phosphor-ERK), Bcl-2 (B-cell lymphoma 2), Bax (B-cell lymphoma-2-associated X-protein), and cyclin D1 antibodies were purchased from Santa Cruz Biotechnology (Santa Cruz, Calif.). p-IκBα (phosphorylated inhibitor of kappa B alpha), p-STAT3 (phosphorylated signal transducer and activator of transcription 3), PARP (poly(ADP-ribose) polymerase), CDK4 (cyclin-dependent kinase 4), and CDK2 (cyclin dependent kinase 2) were purchased from Cell Signaling Technology (Beverly, Mass.). HO-1 (A heme oxygenase-1) antibody was purchased from Enzo life Sciences (Farmingdale, N.Y.). […]
smiles,measurement,setting,value
"C[C@@H](O)[C@H](N)C(=O)O [Sample 1, threonine]","SRMD (erosions, hemorrhage, ulcers), stomach observation",WIRS rats [1],significantly improved
same,gross lesion index,WIRS rats [1],significantly (p<0.05) improved
same,inflammation; pathologic score,WIRS rats [1],significantly (p<0.05) improved
same,regeneration; pathologic score,WIRS rats [1],significantly (p<0.05) improved
same,ulcer/erosion; pathologic score,WIRS rats [1],significantly (p<0.05) improved
same,p-ERK activation (signaling),WIRS rats [2],partially inactivated
same,p-JNK activation (signaling),WIRS rats [2],partially inactivated
same,expression of CDK4,WIRS rats [3],significantly reduced
same,expression of Cyclin D1,WIRS rats [3],significantly reduced
same,gastric mucin / mucus expression (PAS staining),WIRS rats [4],significantly preserved
same,apoptosis level on the gastric mucosa (TUNEL),WIRS rats [5],significantly reduced
same,IFN-γ mRNA expression,WIRS rats [6],significantly reduced
same,PDGF mRNA expression,WIRS rats [6],significantly reduced
same,TNF-α mRNA expression,WIRS rats [6],significantly reduced
same,iNOS mRNA expression,WIRS rats [6],significantly reduced
same,"degree of gastrorrhagia reduced (therapeutic effect of gastric ulcer), rank order",WIRS rats [7],Sample 1<Sample 5<Sample 4<Sample 3 or Sample 2
same,Bax expression,WIRS rats [8],significantly reduced
same,PARP division,WIRS rats [8],significantly reduced
same,cleaved caspase-3 expression,WIRS rats [8],significantly reduced
same,cleaved caspase-8 expression,WIRS rats [8],significantly reduced
